pEC50, pIC50: −log10 of the molar value. Converted amounts (≈) assume the structure as drawn. Blank lines part the entries; values can stand above or below the compound they belong to. The source made the active and inactive calls. The calls are words filed in the database; no cut-off is given here.
How the values were obtained:
[1] = target: T1, Peroxisome proliferator-activated receptor gamma (Homo sapiens, UniProt P37231); assay: Inverse agonist activity at GST tagged human PPARgamma LBD (231 to 505 residues) expressed in Escherichia coli BL21(DE3) assessed as recruitment of fluorescein labeled corepressor NCOR2 Smrt-ID2 peptide to PPARgamma LBD incubated for 24 hrs by LanthaScreen TR-FRET assay
T1 sequence (P37231 whole entry): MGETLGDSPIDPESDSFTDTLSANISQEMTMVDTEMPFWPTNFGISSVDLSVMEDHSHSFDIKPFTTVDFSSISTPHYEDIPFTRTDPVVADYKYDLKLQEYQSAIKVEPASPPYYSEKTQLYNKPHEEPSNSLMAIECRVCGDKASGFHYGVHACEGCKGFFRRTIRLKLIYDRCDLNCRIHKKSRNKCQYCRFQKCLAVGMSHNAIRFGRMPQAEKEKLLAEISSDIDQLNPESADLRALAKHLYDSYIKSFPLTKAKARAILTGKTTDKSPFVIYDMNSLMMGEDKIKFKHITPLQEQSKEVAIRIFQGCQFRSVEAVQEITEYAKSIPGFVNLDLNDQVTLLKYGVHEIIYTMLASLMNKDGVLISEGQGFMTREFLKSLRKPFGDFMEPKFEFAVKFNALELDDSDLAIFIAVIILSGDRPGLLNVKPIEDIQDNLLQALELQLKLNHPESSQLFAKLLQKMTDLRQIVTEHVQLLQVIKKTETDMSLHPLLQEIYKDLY

[2] = target: T1, Peroxisome proliferator-activated receptor gamma; assay: Inverse agonist activity at human PPARgamma in human RT112/84 transfected with NLuc-fused FABP4 assessed as reduction in PPARgamma transactivation incubated for 6 to 18 hrs by Nano-Glo luciferase assay; format: cell-based
[3] = Antiproliferative activity against human UM-UC-9 assessed as inhibition of cell proliferation by measuring maximum efficacy after 7 days by IncuCyte live-cell imaging assay; format: functional; details: UM-UC-9, 168 h, time 7 day
[4] = Antiproliferative activity against human UM-UC-9 assessed as inhibition of cell proliferation measured after 7 days by IncuCyte live-cell imaging assay; details: UM-UC-9, 168 h
[5] = Microsomal stability in human liver microsomes assessed as intrinsic clearance at 1 uM measured upto 60 mins in presence of NADPH by HPLC-MS/MS analysis; format: ADME, Microsome; details: read-out: CLH (converted)
[6] = Stability in rat hepatocytes assessed as intrinsic clearance at 1 uM incubated for 1 hr by HPLC-MS/MS analysis; format: ADME, cell-based, Hepatocyte; details: read-out: CLH (converted)
[7] = Stability of compound in GSH at pH 7.4 assessed as parent compound remaining at 10 mM and measured after 1 hrs by HPLC-UV analysis; format: physicochemical; details: GSH solution, read-out: Stability
[8] = Stability of compound in GSH at pH 7.4 assessed as parent compound remaining at 10 mM and measured after 2 hrs by HPLC-UV analysis; format: physicochemical; details: GSH solution, read-out: Stability
[9] = Stability of compound in GSH at pH 7.4 assessed as parent compound remaining at 10 mM and measured after 4 hrs by HPLC-UV analysis; format: physicochemical; details: GSH solution, read-out: Stability
[10] = Stability of compound in GSH at pH 7.4 assessed as parent compound remaining at 10 mM and measured after 24 hrs by HPLC-UV analysis; format: physicochemical; details: GSH solution, read-out: Stability
[11] = Stability of compound in cysteine at pH 7.4 assessed as parent compound remaining at 10 mM and measured after 1 hrs by HPLC-UV analysis; format: physicochemical; details: cysteine solution, read-out: Stability
[12] = Stability of compound in cysteine at pH 7.4 assessed as parent compound remaining at 10 mM and measured after 2 hrs by HPLC-UV analysis; format: physicochemical; details: cysteine solution, read-out: Stability
[13] = Stability of compound in cysteine at pH 7.4 assessed as parent compound remaining at 10 mM and measured after 4 hrs by HPLC-UV analysis; format: physicochemical; details: cysteine solution, read-out: Stability
[14] = Stability of compound in cysteine at pH 7.4 assessed as parent compound remaining at 10 mM and measured after 24 hrs by HPLC-UV analysis; format: physicochemical; details: cysteine solution, read-out: Stability
[15] = Apparent permeability across basolateral to apical side in human Caco-2 cells at 2 uM incubated for 2 hrs by LC-MS/MS analysis; format: ADME, cell-based
[16] = Thermodynamic solubility of compound at pH 6.5 PBS buffer; format: physicochemical; details: read-out: Therm_solubility
[17] = target: T2, Nuclear receptor subfamily 1 group I member 2 (Homo sapiens, UniProt O75469); assay: Transactivation of human PXR in human HepG2 cells co-expressing luciferase gene under control of CYP3A4 promoter assessed as increase in luciferase activity incubated for 24 hrs by luminescence based analysis; format: ADME, cell-based
T2 sequence (O75469 whole entry): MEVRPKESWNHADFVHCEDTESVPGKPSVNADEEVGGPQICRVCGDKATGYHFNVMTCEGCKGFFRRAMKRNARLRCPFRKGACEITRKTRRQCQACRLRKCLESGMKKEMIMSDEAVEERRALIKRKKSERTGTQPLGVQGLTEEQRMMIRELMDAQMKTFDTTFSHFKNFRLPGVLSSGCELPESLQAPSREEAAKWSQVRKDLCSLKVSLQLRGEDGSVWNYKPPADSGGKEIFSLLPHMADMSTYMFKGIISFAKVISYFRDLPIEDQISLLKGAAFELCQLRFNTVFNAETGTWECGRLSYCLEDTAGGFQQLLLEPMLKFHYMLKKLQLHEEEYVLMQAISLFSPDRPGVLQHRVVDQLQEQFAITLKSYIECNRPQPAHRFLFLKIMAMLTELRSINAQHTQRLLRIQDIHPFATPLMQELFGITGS

[18] = AUClast in Wistar rat at 0.3 mg/kg,iv measured upto 24 hrs by HPLC-MS/MS analysis; format: ADME, organism-based; parameters: dose 0.3 mg/kg, time < 24 hrs, route iv; details: in vivo
[19] = Clearance in Wistar rat at 0.3 mg/kg,iv measured upto 24 hrs by HPLC-MS/MS analysis; format: ADME, organism-based; details: in vivo
[20] = Volume of distribution at steady state in Wistar rat at 0.3 mg/kg,iv measured upto 24 hrs by HPLC-MS/MS analysis; format: ADME, organism-based; details: in vivo, read-out: Vdss
[21] = Half life in Wistar rat at 0.3 mg/kg,iv measured upto 24 hrs by HPLC-MS/MS analysis; format: ADME, organism-based; details: in vivo
[22] = AUClast in NMRI-nu/nu mouse at 100 mg/kg,po measured upto 24 hrs by HPLC-MS/MS analysis; format: ADME, organism-based; parameters: time < 24 hrs, dose 100 mg/kg, route po; details: in vivo
[23] = Cmax in NMRI-nu/nu mouse at 100 mg/kg,po measured upto 24 hrs by HPLC-MS/MS analysis; format: ADME, organism-based; parameters: time < 24 hrs, dose 100 mg/kg, route po; details: in vivo
[24] = Tmax in NMRI-nu/nu mouse at 100 mg/kg,po measured upto 24 hrs by HPLC-MS/MS analysis; format: ADME, organism-based; details: in vivo
[25] = target: T3, Peroxisome proliferator-activated receptor gamma (Mus musculus) (UniProt P37238); assay: Inverse agonist activity at PPARgamma in NMRI-nu/nu mouse assessed as reduction in Fabp4 mRNA expression in adipose tissue at 100 mg/kg for 3 days and measured 6 hrs last dose by qPCR analysis; format: organism-based; details: time 3.0 day
T3 sequence (whole entry): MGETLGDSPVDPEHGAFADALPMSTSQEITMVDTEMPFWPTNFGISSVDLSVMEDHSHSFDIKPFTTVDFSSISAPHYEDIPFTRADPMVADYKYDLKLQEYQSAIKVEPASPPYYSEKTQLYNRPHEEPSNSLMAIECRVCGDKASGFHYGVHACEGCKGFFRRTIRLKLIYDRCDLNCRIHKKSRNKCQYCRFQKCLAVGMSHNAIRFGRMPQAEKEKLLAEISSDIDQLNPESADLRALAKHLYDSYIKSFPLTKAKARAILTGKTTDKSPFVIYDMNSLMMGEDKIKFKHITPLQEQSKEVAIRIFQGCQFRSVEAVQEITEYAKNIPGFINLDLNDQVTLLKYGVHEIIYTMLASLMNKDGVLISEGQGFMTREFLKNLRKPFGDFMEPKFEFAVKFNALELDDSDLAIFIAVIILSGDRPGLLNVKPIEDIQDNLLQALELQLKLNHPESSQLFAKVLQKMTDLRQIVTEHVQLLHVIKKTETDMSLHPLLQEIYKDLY

- pEC50 [1]: < 5.30
- pIC50 [2]: < 5.30
SMILES: O=C(NCc1ccccc1)c1cc(Cl)cc(C(=O)Nc2ccccc2)c1

- pEC50 [1]: 6.96
SMILES: O=C(NCc1ccc(F)c(F)c1)c1cc(C(=O)Nc2ccccn2)c(Cl)cc1F
- Emax [3]: 100%

- CLint scaled at 1 µM [5]: 14.7 mL/min/kg
- CLint scaled at 1 µM [6]: 42.5 mL/min/kg
- remaining at 1 h, 10000 µM [7]: 100%
- remaining at 2 h, 10000 µM [8]: 100%
- remaining at 4 h, 10000 µM [9]: 100%
- remaining at 24 h, 10000 µM [10]: 100%
- remaining at 1 h, 10000 µM [11]: 100%
- remaining at 2 h, 10000 µM [12]: 100%
- remaining at 4 h, 10000 µM [13]: 100%
- remaining at 24 h, 10000 µM [14]: 100%
- Papp B→A at 2 h, 2 µM [15]: 10.9 ×10⁻⁶ cm/s
- solubility thermodynamic [16]: 1.6 µg/mL (≈ 3.08 µM)
- pIC50 [17]: < 4.30
- AUClast [18]: 0.35 kg·h/L
- clearance [19]: 46.7 mL/min/kg
- Vd [20]: 0.84 L/kg
- half-life [21]: 0.21 h
- AUC(0-t) at 24 h [22]: 520 ng·h/mL
- Cmax [23]: 73 nM
- Tmax [24]: 7 h
- Activity [25]: inactive
SMILES: Cc1cc(N2CCOCC2)cnc1NC(=O)c1cc(C(=O)NCc2ccc(F)c(F)c2)c(F)cc1Cl
- pIC50 [4]: 7.01
- Emax [3]: 99%

- pEC50 [1]: 7.31
SMILES: Cc1cc(-c2nnco2)ccc1NC(=O)c1cc(C(=O)NCc2ccc(F)c(F)c2)c(F)cc1Cl
- Emax [3]: 87%

- pEC50 [1]: 7.16
- pIC50 [2]: 7.42
SMILES: Cc1ccccc1NC(=O)c1cc(C(=O)NCc2ccccc2)c(F)cc1Cl
- pIC50 [4]: 6.78
- Emax [3]: 26%

- pEC50 [1]: 5.66
- pIC50 [2]: < 5.30
SMILES: O=C(NCc1ccccc1)c1cc(C(=O)Nc2ccccc2)c(Cl)c(C(F)(F)F)c1

- pEC50 [1]: 6.30
- pIC50 [2]: 7.04
SMILES: Cc1cccnc1NC(=O)c1cc(C(=O)NCc2ccc(F)c(F)c2)c(F)cc1Cl
- pIC50 [4]: 6.16
- Emax [3]: 108%

- pEC50 [1]: 5.76
SMILES: O=C(NCc1ccc(F)c(F)c1)c1ccc(Cl)c(C(=O)Nc2ccccc2)c1
- Emax [3]: 103%

From ChEMBL document CHEMBL5236643, “Discovery and characterization of orally bioavailable 4-chloro-6-fluoroisophthalamides as covalent PPARG inverse-agonists” (Bioorg Med Chem, 2023)
